This is an account of results in patent US11542545B2, “Microfluidic measurements of the response of an organism to a drug” (priority 2014, dated 2023).

Test [1] relates to E. coli isolates from patients with urinary tract infections and susceptible to various antibiotics. The conditions noted are these: 1:1 BHI:urine, qPCR. A general note: Real-time PCR tracks product formation cycle by cycle.
Another test deals with E. coli. The conditions noted are these: after treatment with trimethoprim, susceptible cells, vs baseline level of zero (Slager 2014); cited from earlier work.
Test [2] deals with resistant E. coli isolate. The experiment in a line: 23S rDNA copy number by digital PCR on a SlipChip after ciprofloxacin exposure, resistant isolate. Type of test: cell-based. The conditions noted are these: Example 4 resistant isolate, 2.5 ug/mL ciprofloxacin.
The test system of test [3] is ciprofloxacin-susceptible E. coli isolate from a patient with a urinary tract infection. The conditions noted are these: 0.75 ug/mL ciprofloxacin, 30 minutes, 1:1 BHI:urine, qPCR, 3 replicates.
For test [4] the test system is unchanged. The conditions noted are these: 0.75 ug/mL ciprofloxacin, 30 minutes, sample diluted 1:10, digital PCR, Poisson statistics.
The subject of test [5] is susceptible UTI E. coli isolate. The conditions noted are these: 2.5 ug/mL ciprofloxacin, 15 minutes, BHI.
For another test, the system named is resistant UTI E. coli. Conditions: 2.5 ug/mL ciprofloxacin, 15 minutes, BHI.
Another test relates to E. coli isolates. The conditions noted are these: RNA target; cited from earlier work.

Where two headings read alike, the source gives them in different places.

As to trimethoprim/sulfamethoxazole, the “fold change in rDNA copy number” value in test [1] (trimethoprim/sulfamethoxazole treatment, 45 minutes) was found to be 1.35 fold.

As for `COc1cc(Cc2cnc(N)nc2N)cc(OC)c1OC` [trimethoprim], in the test with E. coli, the “relative DNA copy number as compared to the distance from the origin of replication (oriC)” value was “peaks close to the origin of replication”.

In the case of `O=C1CN(/N=C/c2ccc([N+](=O)[O-])o2)C(=O)N1` [nitrofurantoin], the “fold change in rDNA copy number” value in test [1] (nitrofurantoin treatment, 15 minutes) came out at 1.62 fold.

Consider `CN(C)[C@@H]1C(O)=C(C(N)=O)C(=O)[C@@]2(O)C(O)=C3C(=O)c4c(O)cccc4[C@@](C)(O)[C@H]3C[C@@H]12` [tetracycline], for which the “fold change in rDNA copy number” value in test [1] (tetracycline treatment, 30 minutes) is recorded as 1.55 fold.

As to `O=C(O)c1cn(C2CC2)c2cc(N3CCNCC3)c(F)cc2c1=O` [ciprofloxacin], the “change in rDNA copy number” value in test [2] is “No significant change”. In addition, the “Cq of rDNA, treated sample” value in test [3] is on record as 22.84+/−0.53. The “23S rDNA concentration, treated sample” value in test [4] is 148,031+/−7,103 copies/mL. Besides, in test [5], the “23S CT Treated” value is given as 20.19/20.84, the “FeoB CT Treated” value is 23.3/23.71, the “dnaAinh CT Treated” value was 23.93/23.97 and the “recA CT Treated” value is on record as 24.81/24.65. For the same compound, in the test on resistant UTI E. coli, the “23S CT Treated” value is 20.22/20.13, the “FeoB CT Treated” value was 23.19/23.1, the “dnaAinh CT Treated” value is listed as 23.68/23.89 and the “recA CT Treated” value is reported as 27.19/27.05. Moreover, in the test on E. coli isolates, the “Response to Ciprofloxacin: EcHS_A0999 dmsA anaerobic dimethyl sulfoxide reductase, A subunit” value is “Same or Downregulated”; the “Response to Ciprofloxacin: EcHS_A1247 pepT peptidase T” value is “Same or Downregulated”; the “Response to Ciprofloxacin: EcHS_A1333 narK nitrite extrusion protein 1” value is given as “Same or Downregulated”; the “Response to Ciprofloxacin: EcHS_A1334 narG nitrate reductase, alpha subunit” value is reported as “Same or Downregulated”. In the test on E. coli isolates, the “Response to Ciprofloxacin: EcHS_A1335 narH nitrate reductase, beta subunit” value is “Same or Downregulated”; the “Response to Ciprofloxacin: EcHS_A1557 fdnG formate dehydrogenase, nitrate inducible, alpha subunit, selenocysteine-containing” value is on record as “Same or Downregulated”; the “Response to Ciprofloxacin: EcHS_A1755 hypothetical protein” value was “Same or Downregulated”; the “Response to Ciprofloxacin: EcHS_A1940 DNA damage-inducible protein YebG” value is on record as “Significantly Upregulated”. In the test on E. coli isolates, the “Response to Ciprofloxacin: EcHS_A1987 flhC transcriptional activator FlhC” value is reported as “Same or Downregulated”, the “Response to Ciprofloxacin: EcHS_A1988 flhD transcriptional activator FlhD” value is “Same or Downregulated”, the “Response to Ciprofloxacin: EcHS_A2346 napF ferredoxin-type protein” value is “Same or Downregulated” and the “Response to Ciprofloxacin: EcHS_A2835 recA recombinase A” value was “Significantly Upregulated”. In addition, in the test on E. coli isolates, the “Response to Ciprofloxacin: EcHS_A4283 lexA LexA repressor” value is listed as “Significantly Upregulated”, the “Response to Ciprofloxacin: EcHS_A4284 dinF DNA-damage-inducible SOS response protein” value is reported as “Significantly Upregulated” and the “Response to Ciprofloxacin: EcHS_A4300 uvrA excinuclease ABC subunit A” value was “Significantly Upregulated”.
